Experimental data as given in paper doi:10.1101/2023.11.24.568596v1 (biorxiv, 2023).

Experiments:
Details in all cases: binder
CDK2 = CDK2 (Homo sapiens, UniProt P24941)
MAP2K6 = target: T1, MAP2K6 (Homo sapiens, UniProt P52564)
T1 sequence (P52564 1-334): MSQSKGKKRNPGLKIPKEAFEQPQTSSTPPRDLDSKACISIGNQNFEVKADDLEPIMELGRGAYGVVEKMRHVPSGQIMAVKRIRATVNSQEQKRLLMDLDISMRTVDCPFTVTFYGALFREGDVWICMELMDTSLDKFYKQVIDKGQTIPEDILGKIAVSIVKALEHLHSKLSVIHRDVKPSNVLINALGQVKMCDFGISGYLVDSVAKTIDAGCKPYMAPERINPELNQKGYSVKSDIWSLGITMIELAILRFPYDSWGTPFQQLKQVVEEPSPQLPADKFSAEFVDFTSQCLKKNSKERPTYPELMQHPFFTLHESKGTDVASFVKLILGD

CHK2 = CHK2 (Homo sapiens, UniProt O96017)
CHK2, sequence (O96017 whole entry): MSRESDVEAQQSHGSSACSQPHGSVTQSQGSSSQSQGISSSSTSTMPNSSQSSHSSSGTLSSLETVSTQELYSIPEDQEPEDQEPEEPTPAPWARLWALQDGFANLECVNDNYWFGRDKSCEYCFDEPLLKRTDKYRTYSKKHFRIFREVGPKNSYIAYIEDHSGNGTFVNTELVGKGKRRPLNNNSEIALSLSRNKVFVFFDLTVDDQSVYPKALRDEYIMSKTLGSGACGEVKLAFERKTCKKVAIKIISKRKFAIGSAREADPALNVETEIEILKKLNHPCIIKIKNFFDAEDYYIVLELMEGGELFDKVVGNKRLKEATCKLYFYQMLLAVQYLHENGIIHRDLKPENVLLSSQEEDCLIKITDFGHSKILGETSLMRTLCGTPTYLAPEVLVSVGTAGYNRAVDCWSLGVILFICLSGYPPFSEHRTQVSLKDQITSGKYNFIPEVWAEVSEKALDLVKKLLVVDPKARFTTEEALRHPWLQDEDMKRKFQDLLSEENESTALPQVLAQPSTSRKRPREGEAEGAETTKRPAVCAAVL

Haspin = target: T2, Haspin (Homo sapiens, UniProt Q8TF76)
T2 sequence (Q8TF76 1-798): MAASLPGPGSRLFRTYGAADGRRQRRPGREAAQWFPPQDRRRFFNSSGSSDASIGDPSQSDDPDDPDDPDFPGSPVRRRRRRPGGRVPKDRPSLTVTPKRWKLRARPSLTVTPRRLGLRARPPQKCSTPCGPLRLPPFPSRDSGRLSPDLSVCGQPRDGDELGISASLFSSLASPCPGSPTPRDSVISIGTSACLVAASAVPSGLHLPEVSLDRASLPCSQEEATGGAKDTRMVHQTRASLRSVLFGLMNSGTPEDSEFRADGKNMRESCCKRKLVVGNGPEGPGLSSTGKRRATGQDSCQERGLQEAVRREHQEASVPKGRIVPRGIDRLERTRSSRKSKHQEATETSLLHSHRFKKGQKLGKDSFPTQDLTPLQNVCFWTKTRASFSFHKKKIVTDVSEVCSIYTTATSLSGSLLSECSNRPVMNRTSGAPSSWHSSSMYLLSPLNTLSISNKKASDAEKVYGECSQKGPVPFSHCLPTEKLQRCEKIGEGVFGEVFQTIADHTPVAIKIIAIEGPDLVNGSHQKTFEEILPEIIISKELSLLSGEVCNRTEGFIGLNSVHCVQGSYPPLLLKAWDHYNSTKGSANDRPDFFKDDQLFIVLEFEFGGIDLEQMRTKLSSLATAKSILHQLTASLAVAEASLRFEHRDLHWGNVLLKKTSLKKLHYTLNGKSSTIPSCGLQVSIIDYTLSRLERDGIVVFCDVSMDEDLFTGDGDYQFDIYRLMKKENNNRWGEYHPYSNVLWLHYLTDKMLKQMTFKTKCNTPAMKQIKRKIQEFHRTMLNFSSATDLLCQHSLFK

DAPK3 = DAPK3 (Homo sapiens, UniProt O43293)
DAPK3, sequence (O43293 whole entry): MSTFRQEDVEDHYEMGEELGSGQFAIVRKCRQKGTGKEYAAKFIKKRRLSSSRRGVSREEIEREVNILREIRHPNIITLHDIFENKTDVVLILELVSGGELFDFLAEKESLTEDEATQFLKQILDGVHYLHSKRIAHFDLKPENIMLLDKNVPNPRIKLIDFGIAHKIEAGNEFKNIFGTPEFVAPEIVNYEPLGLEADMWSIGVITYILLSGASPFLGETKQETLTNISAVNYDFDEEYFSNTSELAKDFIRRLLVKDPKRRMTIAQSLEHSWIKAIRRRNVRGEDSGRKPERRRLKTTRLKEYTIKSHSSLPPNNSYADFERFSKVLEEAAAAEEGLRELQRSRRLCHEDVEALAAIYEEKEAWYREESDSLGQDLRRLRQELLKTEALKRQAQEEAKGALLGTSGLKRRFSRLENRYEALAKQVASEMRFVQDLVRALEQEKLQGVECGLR

PAK4 = PAK4 (Homo sapiens, UniProt O96013)
PAK4, sequence (O96013 whole entry): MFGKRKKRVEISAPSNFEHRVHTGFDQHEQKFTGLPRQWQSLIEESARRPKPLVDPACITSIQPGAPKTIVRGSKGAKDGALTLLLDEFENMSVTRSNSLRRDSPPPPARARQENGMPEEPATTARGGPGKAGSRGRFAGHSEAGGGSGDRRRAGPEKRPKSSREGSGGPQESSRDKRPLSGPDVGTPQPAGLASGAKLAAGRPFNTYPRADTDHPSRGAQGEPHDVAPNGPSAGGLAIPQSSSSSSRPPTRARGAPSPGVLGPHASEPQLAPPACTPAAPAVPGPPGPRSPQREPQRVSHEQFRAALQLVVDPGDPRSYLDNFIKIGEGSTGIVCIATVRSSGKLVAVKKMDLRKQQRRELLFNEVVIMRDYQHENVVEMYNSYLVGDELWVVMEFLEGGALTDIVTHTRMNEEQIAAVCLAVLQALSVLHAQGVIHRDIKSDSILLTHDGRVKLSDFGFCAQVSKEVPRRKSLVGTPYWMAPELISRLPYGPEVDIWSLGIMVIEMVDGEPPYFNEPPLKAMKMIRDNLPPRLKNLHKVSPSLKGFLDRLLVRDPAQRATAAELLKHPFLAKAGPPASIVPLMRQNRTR

CDKL1 = CDKL1 (Homo sapiens, UniProt Q00532)
CDKL1, sequence (Q00532 whole entry): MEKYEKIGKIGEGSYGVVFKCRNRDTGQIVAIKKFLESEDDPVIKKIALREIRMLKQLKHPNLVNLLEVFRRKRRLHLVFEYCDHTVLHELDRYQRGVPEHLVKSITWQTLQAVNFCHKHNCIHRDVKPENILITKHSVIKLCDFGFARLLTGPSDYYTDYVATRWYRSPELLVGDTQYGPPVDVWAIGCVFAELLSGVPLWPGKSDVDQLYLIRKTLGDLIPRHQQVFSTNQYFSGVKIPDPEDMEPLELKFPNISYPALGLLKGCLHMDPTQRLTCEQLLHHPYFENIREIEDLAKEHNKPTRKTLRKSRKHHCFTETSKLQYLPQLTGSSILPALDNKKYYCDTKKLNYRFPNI

GPRK5 = GPRK5 (Homo sapiens, UniProt P34947)
GPRK5, sequence (P34947 whole entry): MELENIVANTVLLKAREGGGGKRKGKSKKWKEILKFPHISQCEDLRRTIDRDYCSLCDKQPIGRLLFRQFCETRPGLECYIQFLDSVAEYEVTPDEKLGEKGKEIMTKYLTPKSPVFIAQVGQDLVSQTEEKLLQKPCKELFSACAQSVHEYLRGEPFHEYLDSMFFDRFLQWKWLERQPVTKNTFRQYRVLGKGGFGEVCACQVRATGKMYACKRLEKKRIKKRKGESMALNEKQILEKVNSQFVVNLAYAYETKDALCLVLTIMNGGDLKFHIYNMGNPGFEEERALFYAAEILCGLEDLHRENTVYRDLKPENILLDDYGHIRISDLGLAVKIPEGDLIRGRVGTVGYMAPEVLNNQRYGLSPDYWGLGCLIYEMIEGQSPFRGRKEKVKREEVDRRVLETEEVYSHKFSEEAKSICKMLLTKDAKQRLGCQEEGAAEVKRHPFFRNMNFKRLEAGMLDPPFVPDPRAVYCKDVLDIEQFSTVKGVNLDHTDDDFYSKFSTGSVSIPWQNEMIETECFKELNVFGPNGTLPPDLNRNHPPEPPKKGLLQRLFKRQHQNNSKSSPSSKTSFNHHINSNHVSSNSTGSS

MELK = MELK (Homo sapiens, UniProt Q14680)
MELK, sequence (Q14680 whole entry): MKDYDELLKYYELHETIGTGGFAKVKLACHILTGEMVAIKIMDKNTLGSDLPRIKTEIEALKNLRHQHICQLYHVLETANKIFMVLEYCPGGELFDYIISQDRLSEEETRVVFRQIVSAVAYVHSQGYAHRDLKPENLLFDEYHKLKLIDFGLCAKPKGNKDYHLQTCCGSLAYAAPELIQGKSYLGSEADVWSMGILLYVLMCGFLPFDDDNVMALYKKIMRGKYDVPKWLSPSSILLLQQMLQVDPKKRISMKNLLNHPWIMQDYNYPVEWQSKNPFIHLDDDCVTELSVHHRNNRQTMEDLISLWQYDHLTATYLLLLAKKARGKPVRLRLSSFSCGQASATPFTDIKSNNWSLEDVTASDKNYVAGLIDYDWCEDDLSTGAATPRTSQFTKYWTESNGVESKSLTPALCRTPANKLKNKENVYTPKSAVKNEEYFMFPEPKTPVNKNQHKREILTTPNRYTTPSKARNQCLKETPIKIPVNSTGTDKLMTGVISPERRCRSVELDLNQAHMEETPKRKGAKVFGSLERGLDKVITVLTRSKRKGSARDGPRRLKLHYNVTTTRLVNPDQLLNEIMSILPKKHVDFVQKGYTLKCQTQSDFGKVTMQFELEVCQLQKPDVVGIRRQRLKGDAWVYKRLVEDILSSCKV

NEK2 = target: T3, NEK2 (Homo sapiens, UniProt P51955)
T3 sequence (P51955 1-445): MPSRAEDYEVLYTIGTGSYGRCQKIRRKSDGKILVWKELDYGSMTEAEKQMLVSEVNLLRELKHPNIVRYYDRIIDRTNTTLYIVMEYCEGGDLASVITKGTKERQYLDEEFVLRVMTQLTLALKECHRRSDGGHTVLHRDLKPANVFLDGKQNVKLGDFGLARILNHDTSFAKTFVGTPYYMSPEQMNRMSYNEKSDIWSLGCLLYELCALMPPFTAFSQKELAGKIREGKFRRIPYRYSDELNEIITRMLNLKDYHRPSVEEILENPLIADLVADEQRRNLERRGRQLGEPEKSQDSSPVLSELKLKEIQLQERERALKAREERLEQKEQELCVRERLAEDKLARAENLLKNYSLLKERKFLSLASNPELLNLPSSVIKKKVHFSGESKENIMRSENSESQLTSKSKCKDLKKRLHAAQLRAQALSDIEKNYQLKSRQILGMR

CK1d = CK1d (Homo sapiens, UniProt P48730)
CK1d, sequence (P48730 whole entry): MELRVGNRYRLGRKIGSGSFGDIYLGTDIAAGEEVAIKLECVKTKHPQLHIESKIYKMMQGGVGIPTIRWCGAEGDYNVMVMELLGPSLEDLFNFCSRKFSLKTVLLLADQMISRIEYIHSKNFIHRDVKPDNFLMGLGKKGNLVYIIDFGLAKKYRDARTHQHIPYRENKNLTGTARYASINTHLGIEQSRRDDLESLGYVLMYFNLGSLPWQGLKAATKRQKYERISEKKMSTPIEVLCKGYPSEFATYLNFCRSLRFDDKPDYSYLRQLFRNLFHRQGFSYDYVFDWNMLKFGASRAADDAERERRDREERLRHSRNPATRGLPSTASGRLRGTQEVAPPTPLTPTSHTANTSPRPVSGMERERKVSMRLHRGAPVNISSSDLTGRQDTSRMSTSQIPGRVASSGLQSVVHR

CNc1ncc2cc(-c3ccc(-c4cccc(C)n4)cc3Cl)c(=O)n(CCCCN)c2n1 [compound 20, MRLW5]
ΔTm MRLW5 (20) (CDK2): 1.3 °C
ΔTm MRLW5 (20) (MAP2K6): 5.7 °C
ΔTm MRLW5 (20) (CHK2): 2.8 °C
ΔTm MRLW5 (20) (Haspin): -0.4 °C
ΔTm MRLW5 (20) (DAPK3): 1.4 °C
ΔTm MRLW5 (20) (PAK4): 4.8 °C
ΔTm MRLW5 (20) (CDKL1): -0.1 °C
ΔTm MRLW5 (20) (GPRK5): 0.5 °C
ΔTm MRLW5 (20) (MELK): 8.0 °C
ΔTm MRLW5 (20) (NEK2): 4.6 °C
ΔTm MRLW5 (20) (CK1d): 0.8 °C

CNc1ncc2cc(-c3ccc(-c4cccc(C)n4)cc3Cl)c(=O)n(CCC3CCNCC3)c2n1 [compound 22, 6-(2-Chloro-4-(6-methylpyridin-2-yl)phenyl)-2-(methylamino)-8-(2-(piperidin-4-yl)ethyl)pyrido[2,3-d]pyrimidin-7(8H)-one]
ΔTm 22 (CDK2): 2.5 °C
ΔTm 22 (MAP2K6): 5.6 °C
ΔTm 22 (CHK2): 3.0 °C
ΔTm 22 (Haspin): -1.2 °C
ΔTm 22 (DAPK3): 2.4 °C
ΔTm 22 (PAK4): 4.7 °C
ΔTm 22 (CDKL1): 0.4 °C
ΔTm 22 (GPRK5): -1.4 °C
ΔTm 22 (MELK): 8.5 °C
ΔTm 22 (NEK2): 6.6 °C
ΔTm 22 (CK1d): 2.1 °C

CNc1ncc2cc(-c3ccc(-c4cccc(C)n4)cc3Cl)c(=O)n(C[C@H]3CC[C@H](N)CC3)c2n1 [compound 23, 23]
ΔTm 23 (CDK2): 3.5 °C
ΔTm 23 (MAP2K6): 8.3 °C
ΔTm 23 (CHK2): 4.6 °C
ΔTm 23 (Haspin): 1.5 °C
ΔTm 23 (DAPK3): 2.8 °C
ΔTm 23 (PAK4): 4.5 °C
ΔTm 23 (CDKL1): 0.1 °C
ΔTm 23 (GPRK5): 0.3 °C
ΔTm 23 (MELK): 10.4 °C
ΔTm 23 (NEK2): 6.9 °C
ΔTm 23 (CK1d): 2.3 °C

Cc1cccc(-c2ccc(-c3cc4cnc(NC(CO)CO)nc4n(CCCCN)c3=O)c(Cl)c2)n1 [compound 24, 8-(4-Aminobutyl)-6-(2-chloro-4-(6-methylpyridin-2-yl)phenyl)-2-((1,3-dihydroxypropan-2-yl)amino)pyrido[2,3-d]pyrimidin-7(8H)-one]
ΔTm MR24 (24) (CDK2): 1.2 °C
ΔTm MR24 (24) (MAP2K6): 2.8 °C
ΔTm MR24 (24) (CHK2): 2.0 °C
ΔTm MR24 (24) (Haspin): -1.4 °C
ΔTm MR24 (24) (DAPK3): 0.2 °C
ΔTm MR24 (24) (PAK4): 2.2 °C
ΔTm MR24 (24) (CDKL1): 0.9 °C
ΔTm MR24 (24) (GPRK5): -1.0 °C
ΔTm MR24 (24) (MELK): 5.5 °C
ΔTm MR24 (24) (NEK2): 5.6 °C
ΔTm MR24 (24) (CK1d): 1.2 °C

Cc1cccc(-c2ccc(-c3cc4cnc(NCCCc5ccc(N)cc5)nc4n(CCCCN)c3=O)c(Cl)c2)n1 [compound 25, 8-(4-Aminobutyl)-2-((3-(4-aminophenyl)propyl)amino)-6-(2-chloro-4-(6-methylpyridin-2-yl)phenyl)pyrido[2,3-d]pyrimidin-7(8H)-one]
ΔTm 25 (CDK2): 4.9 °C
ΔTm 25 (MAP2K6): 8.3 °C
ΔTm 25 (CHK2): 8.5 °C
ΔTm 25 (Haspin): 1.9 °C
ΔTm 25 (DAPK3): 0.8 °C
ΔTm 25 (PAK4): 5.5 °C
ΔTm 25 (CDKL1): 2.1 °C
ΔTm 25 (GPRK5): 0.6 °C
ΔTm 25 (MELK): 2.4 °C
ΔTm 25 (NEK2): 8.8 °C
ΔTm 25 (CK1d): 3.1 °C

Cc1cccc(-c2ccc(-c3cc4cnc(NCCCN5CCOCC5)nc4n(CCCCN)c3=O)c(Cl)c2)n1 [compound 26, MR26]
ΔTm MR26 (26) (CDK2): 0.9 °C
ΔTm MR26 (26) (MAP2K6): 3.1 °C
ΔTm MR26 (26) (CHK2): 3.3 °C
ΔTm MR26 (26) (Haspin): -1.5 °C
ΔTm MR26 (26) (DAPK3): 0.0 °C
ΔTm MR26 (26) (PAK4): 2.4 °C
ΔTm MR26 (26) (CDKL1): 0.5 °C
ΔTm MR26 (26) (GPRK5): -0.5 °C
ΔTm MR26 (26) (MELK): 5.0 °C
ΔTm MR26 (26) (NEK2): 5.9 °C
ΔTm MR26 (26) (CK1d): 1.9 °C
